c1ccc2c(c1)Cc1ccccc1-2
solubility (mole fraction) (in acetone, 283 K): 0.0445 | solubility (mole fraction) (in acetone, 288 K): 0.049 | solubility (mole fraction) (in acetone, 293 K): 0.0558 | solubility (mole fraction) (in acetone, 298 K): 0.0687 | solubility (mole fraction) (in acetone, 303.1 K): 0.0793 | solubility (mole fraction) (in acetone, 308.2 K): 0.0907 | solubility (mole fraction) (in acetone, 313 K): 0.104 | solubility (mole fraction) (in acetone, 318 K): 0.12 | solubility (mole fraction) (in acetone, 323 K): 0.14 | solubility (mole fraction) (in benzene, 283 K): 0.0883 | solubility (mole fraction) (in benzene, 288 K): 0.0982 | solubility (mole fraction) (in benzene, 293 K): 0.109 | solubility (mole fraction) (in benzene, 298 K): 0.126 | solubility (mole fraction) (in benzene, 303.2 K): 0.143 | solubility (mole fraction) (in benzene, 308 K): 0.158 | solubility (mole fraction) (in benzene, 313 K): 0.183 | solubility (mole fraction) (in benzene, 318 K): 0.209 | solubility (mole fraction) (in benzene, 323 K): 0.235 | solubility (mole fraction) (in chloroform, 283 K): 0.0893 | solubility (mole fraction) (in chloroform, 288 K): 0.102 | solubility (mole fraction) (in chloroform, 293 K): 0.114 | solubility (mole fraction) (in chloroform, 298 K): 0.132 | solubility (mole fraction) (in chloroform, 303.1 K): 0.153 | solubility (mole fraction) (in chloroform, 308.2 K): 0.173 | solubility (mole fraction) (in chloroform, 313 K): 0.195 | solubility (mole fraction) (in chloroform, 318 K): 0.22 | solubility (mole fraction) (in chloroform, 323 K): 0.25 | solubility (mole fraction) (in isobutanol, 283 K): 0.00425 | solubility (mole fraction) (in isobutanol, 288 K): 0.00544 | solubility (mole fraction) (in isobutanol, 293 K): 0.00691 | solubility (mole fraction) (in isobutanol, 298.4 K): 0.00902 | solubility (mole fraction) (in isobutanol, 303.2 K): 0.0121 | solubility (mole fraction) (in isobutanol, 308 K): 0.0156 | solubility (mole fraction) (in isobutanol, 313 K): 0.0192 | solubility (mole fraction) (in isobutanol, 318 K): 0.023 | solubility (mole fraction) (in isobutanol, 323 K): 0.0267 | solubility (mole fraction) (in n-propanol, 283 K): 0.00817 | solubility (mole fraction) (in n-propanol, 288 K): 0.00903 | solubility (mole fraction) (in n-propanol, 293 K): 0.0115 | solubility (mole fraction) (in n-propanol, 298.4 K): 0.0134 | solubility (mole fraction) (in n-propanol, 303.2 K): 0.0163 | solubility (mole fraction) (in n-propanol, 308 K): 0.0188 | solubility (mole fraction) (in n-propanol, 313 K): 0.0215 | solubility (mole fraction) (in n-propanol, 318 K): 0.0248 | solubility (mole fraction) (in n-propanol, 323 K): 0.0289 | solubility (mole fraction) (in toluene, 283 K): 0.063 | solubility (mole fraction) (in toluene, 288 K): 0.0809 | solubility (mole fraction) (in toluene, 293 K): 0.0967 | solubility (mole fraction) (in toluene, 298 K): 0.124 | solubility (mole fraction) (in toluene, 303 K): 0.152 | solubility (mole fraction) (in toluene, 308 K): 0.195 | solubility (mole fraction) (in toluene, 313 K): 0.25 | solubility (mole fraction) (in toluene, 318 K): 0.3 | solubility (mole fraction) (in toluene, 323 K): 0.37
